Laboratory results: patent US8354402B2, “Polyarylcarboxamides useful as lipid lowering agents” (Janssen Pharmaceutica N.V., priority 2000, dated 2013)
Structures can show the parent of a compound that is named as a salt.

Tested on: ApoB secretion, HepG2 cells
Experiment: Quantification of the secretion of ApoB (HepG2 cells, immunoprecipitation, scintillation counting)
Format: cell-based
Details: 24 hours of incubation; for IC50: Homo sapiens
Method: C.1. Quantification of the Secretion of ApoB
HepG2 cells were cultured in 24-well plates in Minimal Essential Medium Rega 3 containing 10% fetal calf serum. Rega 3 has the following composition: CaCl2 (264 μg/ml), KCl (400 μg/ml), MgSO4.7H2O (200 μg/ml), NaCl (6800 μg/ml), NaHCO3 (850 μg/ml), NaH2PO4.H2O (158 μg/ml), D-glucose (1000 μg/ml), phenol red (10 μg/ml), L-alanine (8.9 μg/ml), L-arginine HCl (12 μg/ml), L-asparagine.H2O (15 μg/ml), L-aspartic acid (13.3 μg/ml), L-cystine (24 μg/ml), L-glutamic acid (14.7 μg/ml), glycine (7.5 μg/ml), L-histidine.HCl .H2O (42 μg/ml), L-isoleucine (52 μg/ml), L-leucine (52 μg/ml), L-lysine.HCl (72.5 μg/ml), L-methionine (15 μg/ml), L-phenylalanine (32 μg/ml), L-proline (11.5 μg/ml), L-serine (10.5 μg/ml), L-threonine (48 μg/ml), L-tryptophan (10 μg/ml), L-tyrosine (36 μg/ml), L-valine (46 μg/ml), D-Ca pantothenate (1 μg/ml), choline chloride (1 μg/ml), folic acid (1 μg/ml), 1-enositol (2 μg/ml), nicotinamide (1 μg/ml), pyridoxal HCl (1 μg/ml), riboflavin (0.1 μg/ml) and thiamine HCl (1 μg/ml).
At 70% confluency, the medium was changed and the test compound or carrier (dimethylsulfoxide, 0.4% final concentration) was added. After 24 hours of incubation, the medium was transferred to Eppendorf tubes and cleared by centrifugation. A sheep antibody directed against either apo B was added to the supernatant and the mixture was kept at 8° C. for 24 hours. Then, rabbit anti-sheep antibody was added and the immune complex was allowed to precipitate for 24 hours at 8° C. The immunoprecipitate was pelleted by centrifugation for 25 minutes at 1320 g and washed twice with a buffer containing 40 mM 4-morpholinepropanesulfonic acid, 40 mM NaH2PO4, 100 mM NaF, 0.2 mM dithiothreitol, 5 mM ethylenediamine tetraacetic acid, 5 mM ethylenebis (oxyethylenenitrilo) tetraacetic acid, 1% Triton-X-100, 0.5% sodium deoxycholate, 0.1% sodium dodecylsulphate, 0.2 μM leupeptin and 0.2 μM phenylmethylsulphonylfluoride. Radioactivity in the pellet was quantified by liquid scintillation counting.
Resulting IC50 values are enumerated in Table C.1 for a number of compounds No. 1 to No. 123.

C#CCOC(=O)C(c1ccccc1)N1CCC(c2ccc(NC(=O)c3ccccc3-c3ccc(C(F)(F)F)cc3)cc2)CC1 (stereo not shown) [Co. No. 225]
IC50 (HepG2, 24 h): 67.6 nM

CCNC(=O)C(c1ccccc1)N1CCN(c2ccc(NC(=O)c3c(F)cccc3-c3ccc(C(F)(F)F)cc3)cc2)CC1 (stereo not shown) [Co. No. 196]
IC50 (HepG2, 24 h): 100 nM

CCNC(=O)C(c1ccccc1)C1CCN(c2ccc(NC(=O)c3ccccc3-c3ccc(F)cc3)cc2)CC1 (stereo not shown) [Co. No. 92]
IC50 (HepG2, 24 h): 63.2 nM

CC(C)(C)c1ccc(-c2ccccc2C(=O)Nc2ccc(N3CCC(C(C(=O)NCc4ccccc4)c4ccc(F)cc4)CC3)cc2)cc1 (stereo not shown) [Co. No. 255]
IC50 (HepG2, 24 h): 5.04 nM

O=C(Nc1ccc(C2CCN(C(C(=O)OCCc3ccccc3)c3ccccc3)CC2)cc1)c1ccccc1-c1ccc(C(F)(F)F)cc1 (stereo not shown) [Co. No. 266]
IC50 (HepG2, 24 h): 25.6 nM

COC(=O)C(c1ccccc1)C1CCN(c2ccc(NC(=O)c3ccccc3-c3ccc(C(F)(F)F)cc3)cc2)CC1 (stereo not drawn) [Co. No. 37, methyl α-phenyl-1-[4-[[[4′-(trifluoromethyl)[1,1′-biphenyl]-2-yl]carbonyl]amino]phenyl]-4-piperidineacetate trifluoroacetate (1:1)]
pIC50 (listed as 37): 7.507

CCCNC(=O)C(c1ccccc1)C1CCN(c2ccc(NC(=O)c3ccccc3-c3ccc(Cl)c(Cl)c3)cc2)CC1 (stereo not shown) [Co. No. 83]
IC50 (HepG2, 24 h): 43.3 nM

O=C(Nc1ccc(N2CCN(C(C(=O)NCc3cccnc3)c3ccccc3)CC2)cc1)c1ccccc1-c1ccc(C(F)(F)F)cc1 (stereo not shown) [Co. No. 59]
IC50 (HepG2, 24 h): ≤ 30 nM

C=CCOC(=O)C(c1ccccc1)N1CCN(c2ccc(NC(=O)c3ccccc3-c3ccccc3)cc2)CC1 (stereo not shown) [Co. No. 146]
IC50 (HepG2, 24 h): 341 nM

CCNC(=O)C(c1ccccc1)N1CCN(c2ccc(NC(=O)c3cc(Cl)ccc3-c3ccc(C(F)(F)F)cc3)cc2)CC1 (stereo not shown) [Co. No. 200]
IC50 (HepG2, 24 h): 80.2 nM

CC(C)(C)c1ccc(-c2ccccc2C(=O)Nc2ccc(N3CCC(C(C(=O)NCc4ccccc4)c4ccccc4)CC3)cc2)cc1 (stereo not shown) [Co. No. 53]
IC50 (HepG2, 24 h): 1.84 nM

CCNC(=O)C(c1ccccc1)N1CCN(c2ccc(NC(=O)c3ccccc3-c3ccc(C(F)(F)F)cc3)c(F)c2)CC1 (stereo not shown) [Co. No. 219]
IC50 (HepG2, 24 h): 78.5 nM

C=CCNC(=O)C(c1ccccc1)N1CC=C(c2ccc(NC(=O)c3ccccc3-c3ccc(C(F)(F)F)cc3)cc2)CC1 (stereo not shown) [Co. No. 165]
IC50 (HepG2, 24 h): 33 nM

C=CCOC(=O)C(c1ccccc1)N1CCN(c2ccc(NC(=O)c3ccccc3-c3ccc(C(F)(F)F)cc3)cc2)CC1 (stereo not shown) [Co. No. 144]
IC50 (HepG2, 24 h): 202 nM

CCc1ccc(-c2ccccc2C(=O)Nc2ccc(N3CCC(C(C(=O)OC)c4ccccc4)CC3)cc2)cc1 (stereo not shown) [Co. No. 231]
IC50 (HepG2, 24 h): < 30 nM

CCNC(=O)C(c1ccccc1)C1CCN(c2ccc(NC(=O)c3ccccc3-c3cccc(C)c3)cc2)CC1 (stereo not shown) [Co. No. 90]
IC50 (HepG2, 24 h): 14.1 nM

O=C(Nc1ccc(N2CCC(C(C(=O)NCc3ccccc3)c3ccccc3)CC2)cc1)c1ccccc1C(=O)c1ccccc1 (stereo not shown) [Co. No. 5]
IC50 (HepG2, 24 h): 158 nM

CC(C)NC(=O)C(c1ccccc1)C1CCN(c2ccc(NC(=O)c3ccccc3OCc3ccccc3)cc2)CC1 (stereo not shown) [Co. No. 26]
IC50 (HepG2, 24 h): 275 nM

O=C(Nc1ccc(N2CCC(C(C(=O)Oc3ccccc3)c3ccccc3)CC2)cc1)c1ccccc1-c1ccc(C(F)(F)F)cc1 (stereo not shown) [Co. No. 175]
IC50 (HepG2, 24 h): < 30 nM

CC(C)CCOC(=O)C(c1ccccc1)N1CCC(c2ccc(NC(=O)c3ccccc3-c3ccc(C(F)(F)F)cc3)cc2)CC1 (stereo not shown) [Co. No. 227]
IC50 (HepG2, 24 h): 187 nM

CCCNC(=O)C(c1ccccc1)C1CCN(c2ccc(NC(=O)c3ccccc3Cc3ccccc3)cc2)CC1 (stereo not shown) [Co. No. 20]
IC50 (HepG2, 24 h): 989 nM

C=CCOC(=O)C(c1ccccc1)C1CCN(c2ccc(NC(=O)c3ccccc3-c3ccc(C(F)(F)F)cc3)cc2)CC1 (stereo not shown) [Co. No. 176]
IC50 (HepG2, 24 h): 134 nM

COC(=O)C(c1ccccc1)C1CCN(c2ccc(NC(=O)c3cccc(C)c3-c3ccc(C(C)(C)C)cc3)cc2)CC1 (stereo not shown) [Co. No. 237]
IC50 (HepG2, 24 h): < 30 nM

O=C(Nc1ccc(N2CCC(C(C(=O)NCc3ccccc3)c3ccccc3)CC2)cc1)c1cccc2c1Cc1ccccc1-2 (stereo not shown) [Co. No. 4]
IC50 (HepG2, 24 h): ≥ 3000 nM

O=C(Nc1ccc(N2CCN(C(C(=O)NCc3ccccc3)c3ccccc3)CC2)cc1)c1ccccc1-c1ccccc1 (stereo not shown) [Co. No. 141]
IC50 (HepG2, 24 h): 25.1 nM

CC(C)NC(=O)C(c1ccccc1)N1CCN(c2ccc(NC(=O)c3ccccc3-c3ccc(C(F)(F)F)cc3)cc2)CC1 (stereo not shown) [Co. No. 56]
IC50 (HepG2, 24 h): ≤ 30 nM

COC(=O)C(c1ccc(Br)cc1)N1CCN(c2ccc(NC(=O)c3ccccc3-c3ccc(C(F)(F)F)cc3)cc2)CC1 (stereo not shown) [Co. No. 261]
IC50 (HepG2, 24 h): 743 nM

O=C(Nc1ccc(C2=CCN(C(C(=O)Nc3ccccc3)c3ccccc3)CC2)cc1)c1ccccc1-c1ccc(C(F)(F)F)cc1 (stereo not shown) [Co. No. 164]
IC50 (HepG2, 24 h): 100 nM

O=C(Nc1ccc(N2CCN(C(C(=O)Nc3ccccc3)c3ccccc3)CC2)cc1)c1ccccc1-c1ccc(C(F)(F)F)cc1 (stereo not shown) [Co. No. 140]
IC50 (HepG2, 24 h): 20.3 nM

O=C(Nc1ccc(C2CCN(C(C(=O)OCc3ccccc3)c3ccccc3)CC2)cc1)c1ccccc1-c1ccccc1 (stereo not shown) [Co. No. 153]
IC50 (HepG2, 24 h): 1550 nM

O=C(Nc1ccc(N2CCC(C(C(=O)OCc3ccccc3)c3ccccc3)CC2)cc1)c1ccccc1-c1ccc(C(F)(F)F)cc1 (stereo not shown) [Co. No. 174]
IC50 (HepG2, 24 h): 92.3 nM

CC(C)NC(=O)C(c1ccccc1)C1CCN(c2ccc(NC(=O)c3ccccc3-c3ccccc3)cc2)CC1 (stereo not shown) [Co. No. 22]
IC50 (HepG2, 24 h): 104 nM

O=C(Nc1ccc(N2CCN(C(C(=O)OCc3ccccc3)c3ccccc3)CC2)cc1)c1ccccc1-c1ccccc1 (stereo not shown) [Co. No. 147]
IC50 (HepG2, 24 h): 287 nM

COC(=O)C(c1ccccc1)N1CCN(c2ccc(NC(=O)c3cccc(C)c3-c3ccc(C(F)(F)F)cc3)cc2)CC1 (stereo not shown) [Co. No. 190]
IC50 (HepG2, 24 h): 6.41 nM

COC(=O)C(c1ccccc1)C1CCN(c2ccc(NC(=O)c3ccccc3-c3ccc(C(C)(C)C)cc3)cc2)CC1 (stereo not shown) [Co. No. 238]
pIC50 (listed as 238): 7.824

O=C(Nc1ccc(C2CCN(C(C(=O)OCc3ccccc3)c3ccccc3)CC2)cc1)c1ccccc1-c1ccc(C(F)(F)F)cc1 (stereo not shown) [Co. No. 151]
IC50 (HepG2, 24 h): 612 nM

CCNC(=O)C(c1ccccc1)N1CCN(c2ccc(NC(=O)c3ccccc3-c3ccc(C(F)(F)F)cc3)c(Cl)c2)CC1 (stereo not shown) [Co. No. 214]
IC50 (HepG2, 24 h): < 30 nM

CCNC(=O)C(c1ccccc1)N1CCN(c2ccc(NC(=O)c3cc(OC)c(OC)cc3-c3ccc(C(F)(F)F)cc3)cc2)CC1 (stereo not shown) [Co. No. 202]
IC50 (HepG2, 24 h): 184 nM

O=C(Nc1ccc(N2CCC(C(C(=O)Nc3ccccc3)c3ccccc3)CC2)cc1)c1ccccc1-c1ccccc1 (stereo not shown) [Co. No. 30]
IC50 (HepG2, 24 h): 165 nM

CCNC(=O)N(c1ccccc1)C1CCN(c2ccc(NC(=O)c3ccccc3-c3ccc(C(F)(F)F)cc3)cc2)CC1 [Co. No. 252]
IC50: 12.2 nM

C=CCNC(=O)C(c1ccccc1)N1CCC(c2ccc(NC(=O)c3ccccc3-c3ccccc3)cc2)CC1 (stereo not shown) [Co. No. 163]
IC50 (HepG2, 24 h): 250 nM

CCCOC(=O)C(c1ccccc1)N1CCCN(c2ccc(NC(=O)c3ccccc3-c3ccc(C(F)(F)F)cc3)cc2)CC1 (stereo not shown) [Co. No. 121]
IC50 (HepG2, 24 h): 2110 nM

COC(=O)C(c1ccccc1)N1CCN(c2ccc(NC(=O)c3ccccc3-c3ccc(C(F)(F)F)cc3)c(Cl)c2)CC1 (stereo not shown) [Co. No. 207]
IC50 (HepG2, 24 h): < 30 nM

O=C(Nc1ccc(N2CCN(C(C(=O)Nc3ccccc3)c3ccccc3)CC2)cc1)c1ccccc1-c1ccccc1 (stereo not shown) [Co. No. 145]
IC50 (HepG2, 24 h): 185 nM

O=C(Nc1ccc(C2CCN(C(C(=O)Nc3ccccc3)c3ccccc3)CC2)cc1)c1ccccc1-c1ccc(C(F)(F)F)cc1 (stereo not shown) [Co. No. 80]
IC50 (HepG2, 24 h): 356 nM

CCC(CC)OC(=O)C(c1ccccc1)N1CCC(c2ccc(NC(=O)c3ccccc3-c3ccc(C(F)(F)F)cc3)cc2)CC1 (stereo not shown) [Co. No. 224]
IC50 (HepG2, 24 h): 557 nM

CCCNC(=O)C(c1ccccc1)C1CCN(c2ccc(NC(=O)c3ccccc3-c3cccc(Cl)c3)cc2)CC1 (stereo not shown) [Co. No. 82]
IC50 (HepG2, 24 h): 97.5 nM

CCNC(=O)C(c1ccccc1)C1CCN(c2ccc(NC(=O)c3ccccc3-c3cccc(Cl)c3)cc2)CC1 (stereo not shown) [Co. No. 86]
IC50 (HepG2, 24 h): 84.1 nM

COC(=O)C(c1cccc(Cl)c1)N1CCN(c2ccc(NC(=O)c3ccccc3-c3ccc(C(F)(F)F)cc3)cc2)CC1 (stereo not shown) [Co. No. 260]
IC50 (HepG2, 24 h): < 30 nM
